Test results reported in patent publication US20110136990A1, “POLYMER DERIVATIVE OF DOCETAXEL, METHOD OF PREPARING THE SAME AND USES THEREOF” (priority 2008, published 2011).

Key:
Assay type in all cases: in vivo
[1] = Changes in body weight of mice bearing PC-3 cells; details: nude mice bearing PC-3, 15 mg/kg, tail vein every four days, three times
Protocol: (§1) Using the polymer derivative of docetaxel (PEG-pAsp-14DTX) obtained in Example 1, the following experiment was carried out. PC-3 cells were purchased from ATCC through Summit Pharmaceuticals International Corporation. PC-3 cells were cultured in a RPMI1640+10% FBS medium at 5% CO2 and 37° C., and grown to the cell number required for xenograft. The cells were suspended in physiological saline, and inoculated subcutaneously at the back of the male nude mice [Balb nu/nu, 5 week-old, Charles River Laboratories Japan, Inc.] to 3×10^6 cells/100 μl per mouse. Then, the nude mice were kept for 15 days, and drug administration was started when the tumor volume reached 81.6±5.0 mm^3 (mean±SE, in which SE represents the standard error, the same shall apply hereinafter). […] For the following four groups (n=8), changes in tumor volume and body weight over time were determined: (1) Control group (untreated), (2) 15 mg/kg of a DMSO solution of docetaxel group, (3) 15 mg/kg of PEG-pAsp-14DTX group, and (4) 20 mg/kg of PEG-pAsp-14DTX group (the dosage was the converted amount of docetaxel mg/kg/injection). […] For tumor volume, the major dimension (a mm) and the minor dimension (b mm) were measured with an electronic caliper [Mitsutoyo Corporation], and the volume was calculated according to the following equation.

[2] = tested on: human prostate cancer PC-3 cells; experiment: Drug efficacy test using human prostate cancer PC-3 cells (tumor volume); details: nude mice, PC-3 xenograft, 15 mg/kg, tail vein every four days, three times
Protocol: as §1, with “equation. […]” for “equation.”

[3] = Pharmacokinetic study in mice (plasma levels of DTX); details: male Balb/c mice, tail vein, 10 mg/kg, 5 minutes to 48 hours
Protocol: Ten mg in terms of DTX of the polymer derivative of docetaxel (PEG-pAsp-14DTX) obtained in Example 1 was precisely weighed into a sample vial, to which 1 ml of purified water was added to suspend the sample. After stirring at 4° C. for a whole day and night, it was sonicated under ice cooling for 10 minutes using a Biodisruptor (Nihon Seiki Seisakusho, High Power Unit), filtered with a 0.22 μm filter [Millipore, Millex (registered trademark) GP PES], and the filtrate was collected. The filtrate was gel-filtered (GE Healthcare Bioscience, PD-10, the elution solution: a 10% sucrose solution), and the collected polymer micelle fraction (the mean particle size 120 nm) was used in the following experiment. […]
DTX in the polymer-bound form was hydrolyzed to a free form, and total DTX was determined as follows. […] This was loaded in a HPLC sample vial and analyzed by HPLC under the following condition. The content of DTX was calculated based on the ratio of the peak area of DTX relative to the peak area derived from paclitaxel, which was used as the internal standard.
To 50 μl of the collected plasma, 20 μl of paclitaxel/50% acetonitrile (20 μg/mL) as the internal standard and 300 μl of ethyl acetate were added in this order, and stirred vigorously for one minute at room temperature. […] This was loaded in a HPLC sample vial and analyzed by HPLC […]

changes in plasma levels with time (docetaxel) [3]	Compound	reduction in body weight [1]	tumor growth compared to control group [2]
	CC(=O)O[C@@]12CO[C@@H]1C[C@H](O)[C@@]1(C)C(=O)[C@H](O)C3=C(C)[C@@H](OC(=O)[C@H](O)[C@@H](NC(=O)OC(C)(C)C)c4ccccc4)C[C@@](O)([C@@H](OC(=O)c4ccccc4)[C@H]21)C3(C)C [DMSO solution of docetaxel, docetaxel]	marked reduction in body weight	tumor growth was markedly suppressed
disappears rapidly	CC(=O)O[C@@]12CO[C@@H]1C[C@H](O)[C@@]1(C)C(=O)[C@H](O)C3=C(C)[C@@H](OC(=O)[C@H](O)[C@@H](NC(=O)OC(C)(C)C)c4ccccc4)C[C@@](O)([C@@H](OC(=O)c4ccccc4)[C@H]21)C3(C)C [docetaxel solution, docetaxel]		
